Molecules are shown by their SMILES. Several values for one entry are separate records, joined by “and”; a condition that tells them apart may be missing. Equal entries are not always repeated. Activity calls are given as the source filed them.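 How the source made its calls: active means concentration halving Nedd8 removal by the CSN enzyme IC50 of 60 µM or lower; inactive means the rest.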

For the assay, the target named is COP9 signalosome complex subunit 5 (Homo sapiens) (UniProt Q92905). Nature of the assay: inhibition of CSN cullin-RING ligase deneddylation – biochemical, fluorescence polarization, SCF-Nedd8-OG substrate, set 2, selectivity assay for RPN11 inhibitor project, SAR follow-up (AID 686916). To be noted: Csn5 deneddylation of SCF-Nedd8-OG.
COP9 signalosome complex subunit 5 (Homo sapiens), sequence (Q92905 whole entry, looked up, one chain of several): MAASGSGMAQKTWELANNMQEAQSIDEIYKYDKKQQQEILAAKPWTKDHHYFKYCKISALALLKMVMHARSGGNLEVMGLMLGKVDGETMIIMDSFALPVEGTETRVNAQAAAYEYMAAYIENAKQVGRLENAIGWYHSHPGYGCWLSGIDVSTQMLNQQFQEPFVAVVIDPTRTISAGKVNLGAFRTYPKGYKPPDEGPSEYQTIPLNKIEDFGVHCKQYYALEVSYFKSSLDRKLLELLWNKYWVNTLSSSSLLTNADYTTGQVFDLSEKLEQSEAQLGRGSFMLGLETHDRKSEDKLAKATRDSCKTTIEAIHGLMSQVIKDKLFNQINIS

Take `O=C(Sc1cccc2cccnc12)c1ccc([N+](=O)[O-])cc1`: the IC50 is 13 µM. Next, `COC(=O)[C@H](C)NC(=O)c1cnc2c(SSc3cccc4cc(C(=O)N[C@@H](C)C(=O)OC)cnc34)cccc2c1`: 20.3 µM. The figure for `O=C(Sc1cccc2cccnc12)c1ccc(C(F)(F)F)cc1` is 5.25 µM; for `N#Cc1cccc(C(=O)Sc2cccc3cccnc23)c1` it is 33.3 µM. The figure for `O=C(Sc1cccc2cccnc12)c1ccc(F)cc1F` is 24.6 µM.

`N#Cc1ccc(C(=O)Sc2cccc3cccnc23)cc1`: the IC50 is > 95 µM (inactive). The figure for `CC[C@@H](C)[C@H](NC(=O)c1cnc2c(SSc3cccc4cc(C(=O)N[C@H](C(=O)O)[C@H](C)CC)cnc34)cccc2c1)C(=O)O` is 8.57 µM; for `O=C(Sc1cccc2cccnc12)c1ccccc1OC(F)(F)F` it is 17.8 µM; for `COC(=O)[C@H](C)N(C)C(=O)c1cnc2c(SSc3cccc4cc(C(=O)N(C)[C@@H](C)C(=O)OC)cnc34)cccc2c1` it is 12.8 µM. Next, `O=C(Sc1cccc2cccnc12)c1ccccc1[N+](=O)[O-]`: 9.08 µM; `O=C(Sc1cccc2cccnc12)c1ccccc1Br`: 7.91 µM; `COC(=O)[C@@H](NC(=O)c1cnc2c(SSc3cccc4cc(C(=O)N[C@H](C(=O)OC)C(C)C)cnc34)cccc2c1)C(C)C`: 11.8 µM. In the case of `COC(=O)[C@H](C)NC(=O)c1ccnc2c(SSc3cccc4c(C(=O)N[C@@H](C)C(=O)OC)ccnc34)cccc12`, the IC50 was 22.2 µM. Next, `COc1ccc(C(=O)Sc2cccc3cccnc23)cc1OC`: 14.3 µM; `O=C(Sc1cccc2cccnc12)c1c(Cl)cccc1Cl`: 17.4 µM; `CC(C)Cc1ccc(C(=O)Sc2cccc3cccnc23)cc1`: 15.6 µM. The figure for `COc1ccccc1C(=O)Sc1cccc2cccnc12` is 20.7 µM and 5.61 µM; for `Cc1cccc(C(=O)Sc2cccc3cccnc23)c1` it is 12.3 µM.

For the compound `CC(C)[C@H](NC(=O)c1cnc2c(SSc3cccc4cc(C(=O)N[C@H](C(=O)O)C(C)C)cnc34)cccc2c1)C(=O)O`, the IC50 was 8.35 µM. The figure for `C[C@@H](C(=O)O)N(C)C(=O)c1cnc2c(SSc3cccc4cc(C(=O)N(C)[C@@H](C)C(=O)O)cnc34)cccc2c1` is 13 µM. The figure for `O=C(Sc1cccc2cccnc12)c1cccc2ccccc12` is 14.3 µM; for `O=C(Sc1cccc2cccnc12)c1ccccc1F` it is > 95 µM (inactive). The figure for `COc1cccc(C(=O)Sc2cccc3cccnc23)c1` is 5.57 µM; for `O=C(Sc1cccc2cccnc12)c1ccc(F)cc1` it is 3.12 µM. Regarding `O=C(O)[C@@H]1CCCN1C(=O)c1cnc2c(SSc3cccc4cc(C(=O)N5CCC[C@H]5C(=O)O)cnc34)cccc2c1`, the IC50 was 6.36 µM. Next, `Cc1ccccc1C(=O)Sc1cccc2cccnc12`: 18.2 µM; `O=C(Sc1cccc2cccnc12)c1ccc2c(c1)OCO2`: 40.1 µM; `O=C(Sc1cccc2cccnc12)c1ccc(F)c(F)c1`: 4.92 µM. The figure for `COc1ccc(C(=O)Sc2cccc3cccnc23)cc1F` is 5 µM; for `COC(=O)C[C@H](NC(=O)c1cnc2c(SSc3cccc4cc(C(=O)N[C@@H](CC(=O)OC)C(=O)OC)cnc34)cccc2c1)C(=O)OC` it is 13 µM. Next, `CCOc1ccccc1C(=O)Sc1cccc2cccnc12`: 11.7 µM and 31.8 µM; `COc1ccc(C(=O)Sc2cccc3cccnc23)cc1`: 13.7 µM. In the case of `CCCc1ccc(C(=O)Sc2cccc3cccnc23)cc1`, the IC50 is 10.4 µM. In the case of `O=C(Sc1cccc2cccnc12)C1CCCCC1`, the 50% inhibitory concentration (IC50) was 4.07 µM. The figure for `CC(C)(C)OC(=O)CCNC(=O)c1cnc2c(SSc3cccc4cc(C(=O)NCCC(=O)OC(C)(C)C)cnc34)cccc2c1` is 26.4 µM; for `COC(=O)[C@H](CC(C)C)NC(=O)c1cnc2c(SSc3cccc4cc(C(=O)N[C@@H](CC(C)C)C(=O)OC)cnc34)cccc2c1` it is 13.9 µM.

Turning to `Cc1ccc(C(=O)Sc2cccc3cccnc23)cc1`, the IC50 is > 95 µM (inactive). `COC(=O)[C@@H]1CCCN1C(=O)c1cnc2c(SSc3cccc4cc(C(=O)N5CCC[C@H]5C(=O)OC)cnc34)cccc2c1`: the IC50 is 17.6 µM. The figure for `O=C(Sc1cccc2cccnc12)c1cccc(C(F)(F)F)c1` is > 95 µM (inactive); for `O=C(Sc1cccc2cccnc12)c1ccccc1Cl` it is 19.9 µM; for `COC(=O)c1cnc2c(SSc3cccc4cc(C(=O)OC)cnc34)cccc2c1` it is 20 µM. For `CC[C@@H](C)[C@H](NC(=O)c1cnc2c(SSc3cccc4cc(C(=O)N[C@H](C(=O)OC)[C@@H](C)CC)cnc34)cccc2c1)C(=O)OC`, the IC50 is 4.73 µM. The figure for `O=C(O)c1cnc2c(SSc3cccc4cc(C(=O)O)cnc34)cccc2c1` is 4.28 µM; for `CC(C)C[C@H](NC(=O)c1cnc2c(SSc3cccc4cc(C(=O)N[C@@H](CC(C)C)C(=O)O)cnc34)cccc2c1)C(=O)O` it is 11.8 µM; for `O=C(Sc1cccc2cccnc12)c1ccccc1I` it is 19.4 µM.

Consider `O=C(Sc1cccc2cccnc12)c1ccccc1`, for which the IC50 is 11.2 µM. Regarding `COC(=O)[C@H](CO)NC(=O)c1cnc2c(SSc3cccc4cc(C(=O)N[C@@H](CO)C(=O)OC)cnc34)cccc2c1`, the IC50 was 36.2 µM.

`O=C(Sc1cccc2cccnc12)c1cccc(Cl)c1`: the IC50 is 2.63 µM.
